Assay results from patent US20030224026A1, “Dermatological or cosmetic composition which includes aromatic nitroxide compounds and their use” (priority 2002, published 2003).

Experiments:
[1] = Peroxidation of multilamellar PC liposomes with incorporated nitroxides, induced by Bu^tOOH/Cytochrome C, oxygen consumption; details: 22 μM nitroxide incorporated inside 0.77 mM multilamellar liposomes; pH 7.4, 37° C., 5 minutes
Description: The compounds are indicated with the abbreviations: MC4, DC4, TEMPO and TDN as defined for FIG. 2. With reference to FIG. 4, the percentage inhibition of the consumption of oxygen was obtained from measurements carried out on an oxygraph. The system studied consists of multilamellar PC liposomes which have nitroxides incorporated inside them ([…]) in 5 mM phosphate buffer saline, 0.1 mM EDTA, pH 7.4 at 37° C.
The Applicant carried out an experimental test to evaluate the peroxidation of multilamellar PC liposomes, induced through the Bu^tOOH/Cytochrome C system.
The liposomes employed in this experimental system contain inside them the antioxidant agents. […] The peroxidation of these liposomes was evaluated by monitoring the consumption of oxygen in a final volume of 1.8 ml and at a constant temperature of 37° C. in 5 mM of phosphate buffer saline, 0.1 mM EDTA, pH 7.4 as previously described.
The final concentration of the liposomes and of antioxidant agents, in the oxidation chamber, was 0.77 mM and 22 μM respectively. […] The consumption of oxygen was monitored for 5 minutes. For each of the nitroxides tested, the degree of suppression of oxygen consumption was calculated. […]

[2] = Peroxidation of unilamellar PC liposomes induced by Bu^tOOH/Cytochrome C, oxygen consumption (oxygraph); details: for inhibition of oxygen consumption: 5 μM nitroxide added 80 s after onset, 2.4 mM unilamellar PC liposomes, PBS pH 7.4, 37° C., 6 minutes
Description: Oxidation was induced by injecting at point A, 25 μl of Bu^tOOH 7.3 M and injecting at point B 25 μl of cytochrome C (1 mg protein/ml). Point C refers to the addition of 5 μM of the following compounds (if not specified otherwise):
The compounds are indicated with the following abbreviations: MC4, the compound with formula (I) in which R=C4 alkyl residue; DC4, the compound with formula (I) in which R=(X) and (X) contains R1=C4 methylenic alkyl residue; MC8, the compound with formula (I) in which R=C8 alkyl residue; DC8, the compound with formula (I) in which R=(X) and (X) contains R1=C8 methylenic alkyl residue; TEMPO and TDN. With reference to FIG. 2, the percentage inhibition of the consumption of oxygen in PC unilamellar liposome (2.4 mM) in 5 mM phosphate buffer saline, 0.1 mM EDTA, pH 7.4 at 37° C. to which 5 μM nitroxide compounds was added are reported.
The Applicant has selected certain nitroxide radicals as antioxidant agents following experimental tests. The antioxidant properties were studied in the laboratory in different biological systems. The systems employed are biological systems which mimic in vivo ones. The biological systems used are subjected to oxidative damage. Oxidative damage was induced in various ways. The Applicant carried out an experimental test to evaluate the peroxidation of unilamellar PC liposomes induced by the use of the Bu^tOOH/Cytochrome C system. […]
After 80 seconds from the onset of peroxidation, the different nitroxide radicals at final concentration of 5 μM were added. […] The reaction was monitored for 6 minutes. For each nitroxide tested, the extent of inhibition of the consumption of oxygen was calculated. The value of inhibition was calculated in the following way: […]
Each individual recording is reported in FIG. 1, since the rate of oxygen consumption before the addition of the antioxidant compounds at point C is always constant. From these experiments, the percentage inhibition of oxygen consumption was calculated by subtraction as reported above.

| Molecule | inhibited peroxidation (percentage of inhibition of oxygen consumption) [1] | inhibition of oxygen consumption [2] | protective effects against lipid peroxidation ([2]; higher concentration than 5 μM, same experimental conditions) |
| --- | --- | --- | --- |
| CC1(C)CCCC(C)(C)N1[O] [TEMPO, 2,2,6,6-tetramethylpiperidine-1-oxyl] | no effect | no protective effects | no protective effects |
| bis(2,2,6,6-tetramethylpiperidine-1-oxyl-4-yl)sebacate [TDN] | 45% | lower inhibition values with respect to DC4 |  |
